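Method: 48-hour compound exposure of cells in 96-well plates, five concentrations, linear interpolation of endpoints. GI50: concentration for 50% inhibition of growth.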 The source made the active and inactive calls. No stated cut-off is given here; in the data, active = GI50 up to about 1.1 µM and inactive = higher.
How the values were obtained:
Assay in all cases: growth of human tumour cells (NCI), 48 h
TK-10 = test system: TK-10
DLD-1 = test system: DLD-1
MOLT-4 = test system: MOLT-4
CCRF-CEM = test system: CCRF-CEM
M19-MEL = test system: M19-MEL
ACHN = test system: ACHN
DMS-273 = test system: DMS-273
SF-539 = test system: SF-539
M14 = test system: M14
SK-MEL-2 = test system: SK-MEL-2
Malme-3M = test system: Malme-3M
SNB-19 = test system: SNB-19
K562 = test system: K562
HCT-15 = test system: HCT-15
SK-OV-3 = test system: SK-OV-3
KM-20L2 = test system: KM-20L2
HL-60 = test system: HL-60
HOP-62 = test system: HOP-62
SK-MEL-5 = test system: SK-MEL-5
UACC-257 = test system: UACC-257
NCI-H226 = test system: NCI-H226
A498 = test system: A498
HOP-92 = test system: HOP-92
HCT-116 = test system: HCT-116
LXFL 529 = test system: LXFL 529
SN12C = test system: SN12C
HCC 2998 = test system: HCC 2998
CAKI-1 = test system: CAKI-1
SF-295 = test system: SF-295
OVCAR-3 = test system: OVCAR-3
U-251 = test system: U-251
RXF 393 = test system: RXF 393
HT-29 = test system: HT-29
786-0 = test system: 786-0
SW-620 = test system: SW-620
OVCAR-4 = test system: OVCAR-4
NCI-H460 = test system: NCI-H460
UACC-62 = test system: UACC-62
UO-31 = test system: UO-31
SK-MEL-28 = test system: SK-MEL-28
A549 = test system: A549
RXF 631 = test system: RXF 631
SNB-75 = test system: SNB-75
KM12 = test system: KM12
LOX IMVI = test system: LOX IMVI
SF-268 = test system: SF-268
NCI-H522 = test system: NCI-H522
EKVX = test system: EKVX
DMS-114 = test system: DMS-114
NCI-H23 = test system: NCI-H23
SNB-78 = test system: SNB-78
OVCAR-5 = test system: OVCAR-5
IGROV-1 = test system: IGROV-1
OVCAR-8 = test system: OVCAR-8
COLO 205 = test system: COLO 205
XF498 = test system: XF498
HOP-18 = test system: HOP-18
SR = test system: SR

In the case of `CC1/C(=N\O)CC(c2ccccc2)N(C)C1c1ccccc1` (stereo unspecified), the GI50 (TK-10) is reported as > 100 µM (inactive), the GI50 (DLD-1) is reported as > 100 µM (inactive) and the GI50 (MOLT-4) is reported as > 100 µM (inactive). The GI50 (CCRF-CEM) was > 100 µM (inactive), the GI50 (M19-MEL) was > 100 µM (inactive) and the GI50 (ACHN) was > 100 µM (inactive). The GI50 (DMS-273) was > 100 µM (inactive), the GI50 (SF-539) was > 100 µM (inactive) and the GI50 (M14) was > 100 µM (inactive). The GI50 (SK-MEL-2) was > 100 µM (inactive), the GI50 (Malme-3M) was 80.9 µM (inactive) and the GI50 (SNB-19) was > 100 µM (inactive). The GI50 (K562) was > 100 µM (inactive), the GI50 (HCT-15) was > 100 µM and the GI50 (SK-OV-3) was > 100 µM (inactive). For the same molecule, the GI50 (KM-20L2) was > 100 µM (inactive), the GI50 (HL-60) was > 100 µM (inactive) and the GI50 (HOP-62) was > 100 µM (inactive). The GI50 (SK-MEL-5) was > 100 µM (inactive), the GI50 (UACC-257) was > 100 µM (inactive) and the GI50 (NCI-H226) was > 100 µM (inactive). The GI50 (A498) was > 100 µM (inactive), the GI50 (HOP-92) was > 100 µM (inactive) and the GI50 (HCT-116) was > 100 µM (inactive). The GI50 (LXFL 529) was > 100 µM (inactive), the GI50 (SN12C) was > 100 µM (inactive) and the GI50 (HCC 2998) was > 100 µM (inactive). For the same molecule, the GI50 (CAKI-1) was > 100 µM (inactive), the GI50 (SF-295) was > 100 µM (inactive) and the GI50 (OVCAR-3) was > 100 µM (inactive). The GI50 (U-251) was > 100 µM (inactive), the GI50 (RXF 393) was > 100 µM (inactive) and the GI50 (HT-29) was > 100 µM (inactive). The GI50 (786-0) was > 100 µM (inactive), the GI50 (SW-620) was > 100 µM (inactive) and the GI50 (OVCAR-4) was > 100 µM (inactive). The GI50 (NCI-H460) was > 100 µM (inactive), the GI50 (UACC-62) was > 100 µM (inactive) and the GI50 (UO-31) was > 100 µM (inactive). The GI50 (SK-MEL-28) was > 100 µM (inactive), the GI50 (A549) was > 100 µM (inactive) and the GI50 (RXF 631) was > 100 µM (inactive). For the same molecule, the GI50 (SNB-75) was > 100 µM (inactive), the GI50 (KM12) was > 100 µM (inactive) and the GI50 (LOX IMVI) was > 100 µM (inactive). For the same molecule, the GI50 (SF-268) was > 100 µM (inactive), the GI50 (NCI-H522) was > 100 µM (inactive) and the GI50 (EKVX) was > 100 µM (inactive). The GI50 (DMS-114) was > 100 µM (inactive), the GI50 (NCI-H23) was > 100 µM (inactive) and the GI50 (SNB-78) was > 100 µM (inactive). The GI50 (OVCAR-5) was > 100 µM (inactive), the GI50 (IGROV-1) was > 100 µM (inactive) and the GI50 (OVCAR-8) was > 100 µM (inactive). The GI50 (COLO 205) was > 100 µM (inactive).
`O=C1OCc2c1cc1ccc(O)c(OC3OC(CO)C(O)C(O)C3O)c1c2-c1ccc2c(c1)OCO2` (stereo unspecified) was tested, and the GI50 (TK-10) was > 100 µM (inactive), the GI50 (ACHN) was 72.1 µM (inactive) and the GI50 (DMS-273) was 94.6 µM (inactive). The GI50 (SF-539) was > 100 µM (inactive), the GI50 (M14) was 87.3 µM (inactive) and the GI50 (Malme-3M) was > 100 µM (inactive). For the same molecule, the GI50 (HCT-15) was 46.2 µM, the GI50 (SK-OV-3) was > 100 µM (inactive) and the GI50 (KM-20L2) was > 100 µM (inactive). For the same molecule, the GI50 (HOP-62) was > 100 µM (inactive), the GI50 (XF498) was 62.7 µM (inactive) and the GI50 (A498) was > 100 µM (inactive). For the same molecule, the GI50 (LXFL 529) was 68.1 µM (inactive), the GI50 (SN12C) was 89.3 µM (inactive) and the GI50 (CAKI-1) was 87.3 µM (inactive). The GI50 (SF-295) was > 100 µM (inactive), the GI50 (U-251) was > 100 µM (inactive) and the GI50 (RXF 393) was 59.4 µM (inactive). For the same molecule, the GI50 (HT-29) was 47.2 µM (inactive), the GI50 (786-0) was > 100 µM (inactive) and the GI50 (SW-620) was > 100 µM (inactive). For the same molecule, the GI50 (NCI-H460) was > 100 µM (inactive), the GI50 (UACC-62) was 76.9 µM (inactive) and the GI50 (SK-MEL-28) was 67.8 µM (inactive). The GI50 (A549) was > 100 µM (inactive), the GI50 (RXF 631) was > 100 µM (inactive) and the GI50 (LOX IMVI) was 86.7 µM (inactive). For the same molecule, the GI50 (EKVX) was > 100 µM (inactive), the GI50 (DMS-114) was 47.5 µM (inactive) and the GI50 (SNB-78) was 89.3 µM (inactive). For the same molecule, the GI50 (OVCAR-5) was > 100 µM (inactive), the GI50 (IGROV-1) was > 100 µM (inactive) and the GI50 (OVCAR-8) was 94 µM (inactive). The GI50 (COLO 205) was > 100 µM (inactive).
`CN1CCN=C1c1nnn(-c2ccc([N+](=O)[O-])cc2)c1-c1ccccc1` was tested, and the GI50 (TK-10) was > 100 µM (inactive), the GI50 (DLD-1) was 67 µM (inactive) and the GI50 (MOLT-4) was > 100 µM (inactive). For the same molecule, the GI50 (CCRF-CEM) was 24.7 µM (inactive), the GI50 (M19-MEL) was > 100 µM (inactive) and the GI50 (HOP-18) was > 100 µM (inactive). For the same molecule, the GI50 (ACHN) was > 100 µM (inactive), the GI50 (DMS-273) was > 100 µM (inactive) and the GI50 (SF-539) was > 100 µM (inactive). The GI50 (M14) was > 100 µM (inactive), the GI50 (SK-MEL-2) was > 100 µM (inactive) and the GI50 (Malme-3M) was > 100 µM (inactive). The GI50 (SNB-19) was > 100 µM (inactive), the GI50 (K562) was 33.7 µM (inactive) and the GI50 (HCT-15) was > 100 µM. For the same molecule, the GI50 (SK-OV-3) was > 100 µM (inactive), the GI50 (KM-20L2) was > 100 µM (inactive) and the GI50 (HL-60) was 18.8 µM (inactive). The GI50 (HOP-62) was > 100 µM (inactive), the GI50 (XF498) was 89.3 µM (inactive) and the GI50 (SK-MEL-5) was > 100 µM (inactive). The GI50 (SR) was > 100 µM (inactive), the GI50 (UACC-257) was > 100 µM (inactive) and the GI50 (NCI-H226) was > 100 µM (inactive). For the same molecule, the GI50 (A498) was > 100 µM (inactive), the GI50 (HOP-92) was 13.6 µM (inactive) and the GI50 (HCT-116) was > 100 µM (inactive). The GI50 (LXFL 529) was > 100 µM (inactive), the GI50 (SN12C) was > 100 µM (inactive) and the GI50 (HCC 2998) was > 100 µM (inactive). For the same molecule, the GI50 (CAKI-1) was > 100 µM (inactive), the GI50 (SF-295) was > 100 µM (inactive) and the GI50 (OVCAR-3) was > 100 µM (inactive). The GI50 (U-251) was 94.6 µM (inactive), the GI50 (RXF 393) was > 100 µM (inactive) and the GI50 (HT-29) was 64.9 µM (inactive). For the same molecule, the GI50 (786-0) was > 100 µM (inactive), the GI50 (SW-620) was 26.5 µM (inactive) and the GI50 (OVCAR-4) was > 100 µM (inactive). The GI50 (NCI-H460) was > 100 µM (inactive), the GI50 (UACC-62) was > 100 µM (inactive) and the GI50 (UO-31) was 75.5 µM (inactive). The GI50 (SK-MEL-28) was > 100 µM (inactive), the GI50 (A549) was > 100 µM (inactive) and the GI50 (SNB-75) was > 100 µM (inactive). The GI50 (KM12) was > 100 µM (inactive), the GI50 (LOX IMVI) was 94.6 µM (inactive) and the GI50 (SF-268) was > 100 µM (inactive). For the same molecule, the GI50 (NCI-H522) was > 100 µM (inactive), the GI50 (EKVX) was > 100 µM (inactive) and the GI50 (DMS-114) was 89.3 µM (inactive). The GI50 (NCI-H23) was > 100 µM (inactive), the GI50 (SNB-78) was > 100 µM (inactive) and the GI50 (OVCAR-5) was > 100 µM (inactive). For the same molecule, the GI50 (IGROV-1) was > 100 µM (inactive), the GI50 (OVCAR-8) was > 100 µM (inactive) and the GI50 (COLO 205) was > 100 µM (inactive).

— ChEMBL document CHEMBL1201862, “PubChem BioAssay data set” (2004)
